In article PMC7280082 (Acta Pharmaceutica Sinica. B, 2019):

Key:
WT HIV-1 RT = WT HIV-1 RT (Human immunodeficiency virus type 1 group M subtype B, UniProt P03366); assay: Recombinant HIV-1 RT inhibitory assay; assay type: biochemical
[1] = tested on: HIV-1 E138K mutant strain; assay: microbe, parasite or virus in culture; assay type: cell-based; details: for SI E138K: CC50/EC50; for EC50: Human immunodeficiency virus 1, MT4, read-out: EC50 E138K; for RF E138K: ratio of EC50 (resistant viral strain)/EC50 (wild-type viral strain)
[2] = tested on: HIV-1 Y181C mutant strain; assay: microbe, parasite or virus in culture; assay type: cell-based; details: for SI Y181C: CC50/EC50; for EC50: Human immunodeficiency virus 1, MT4, read-out: EC50 Y181C; for RF Y181C: ratio of EC50 (resistant viral strain)/EC50 (wild-type viral strain)
WT HIV-1 (IIIB) = assay: microbe, parasite or virus in culture; assay type: cell-based; details: for EC50: Human immunodeficiency virus 1, IIIB, MT4, read-out: EC50 IIIB; for SI IIIB: ratio of CC50/EC50
[3] = tested on: HIV-1 F227L + V106A double-mutant strain; assay: microbe, parasite or virus in culture; assay type: cell-based; details: for SI F227L + V106A: CC50/EC50; for EC50: Human immunodeficiency virus 1, MT4, read-out: EC50 F227L + V106A; for RF F227L + V106A: ratio of EC50 (resistant viral strain)/EC50 (wild-type viral strain)
[4] = tested on: HIV-1 L100I mutant strain; assay: microbe, parasite or virus in culture; assay type: cell-based; details: for SI L100I: CC50/EC50; for EC50: Human immunodeficiency virus 1, MT4, read-out: EC50 L100I; for RF L100I: ratio of EC50 (resistant viral strain)/EC50 (wild-type viral strain)
[5] = tested on: HIV-1 RES056 (K103N + Y181C) double-mutant strain; assay: microbe, parasite or virus in culture; assay type: cell-based; details: for SI RES056: CC50/EC50; for EC50: Human immunodeficiency virus 1, MT4, read-out: EC50 RES056; for RF RES056: ratio of EC50 (resistant viral strain)/EC50 (wild-type viral strain)
HIV-2 strain (ROD) = assay: Anti-HIV-2; assay type: cell-based; details: for EC50: Human immunodeficiency virus 2, MT4, read-out: EC50 ROD; for SI ROD: ratio of CC50/EC50
[6] = tested on: HIV-1 Y188L mutant strain; assay: microbe, parasite or virus in culture; assay type: cell-based; details: for SI Y188L: CC50/EC50; for EC50: Human immunodeficiency virus 1, MT4, read-out: EC50 Y188L; for RF Y188L: ratio of EC50 (resistant viral strain)/EC50 (wild-type viral strain)
[7] = tested on: HIV-1 K103N mutant strain; assay: microbe, parasite or virus in culture; assay type: cell-based; details: for SI K103N: CC50/EC50; for EC50: Human immunodeficiency virus 1, MT4, read-out: EC50 K103N; for RF K103N: ratio of EC50 (resistant viral strain)/EC50 (wild-type viral strain)
[8] = Cytotoxicity in mock-infected MT-4 cell cultures, MTT method; details: human, mock-infected MT-4 cells

| Structure (SMILES) | IC50 (WT HIV-1 RT) [µM] | SI E138K [1] | EC50 [1] [µM] | RF E138K [1] | SI Y181C [2] | EC50 [2] [µM] | RF Y181C [2] | EC50 (WT HIV-1 (IIIB)) [µM] | SI IIIB (WT HIV-1 (IIIB)) | SI F227L + V106A [3] | EC50 [3] [µM] | RF F227L + V106A [3] | SI L100I [4] | EC50 [4] [µM] | RF L100I [4] | SI RES056 [5] | EC50 [5] [µM] | RF RES056 [5] | EC50 (HIV-2 strain (ROD)) [µM] | SI ROD (HIV-2 strain (ROD)) | other results |
| --- | --- | --- | --- | --- | --- | --- | --- | --- | --- | --- | --- | --- | --- | --- | --- | --- | --- | --- | --- | --- | --- |
| COc1ccc(-c2cc(C)c(Oc3nc(NC4CCN(Cc5ccc(C(N)=O)cc5)CC4)nc4ccsc34)c(C)c2)cc1 [Compound 22, 4-((4-((4-((4′-Methoxy-3,5-dimethyl-[1,1′-biphenyl]-4-yl)oxy)thieno[3,2-d]pyrimidin-2-yl)amino)piperidin-1-yl)methyl)benzamide] | 0.233 ± 0.028 | 90 | 0.149 ± 0.042 | 2.8 | 85 | 0.158 ± 0.0273 | 3.0 | 0.0526 ± 0.0114 | 256 | 45 | 0.297 ± 0.0398 | 5.7 | 50 | 0.268 ± 0.103 | 5.1 | 12 | 1.12 ± 0.353 | 21.4 | 5.04 ± 0.685 | 3 | SI Y188L [6]: 122; EC50 [6]: 0.11 ± 0.00357 µM; RF Y188L [6]: 2.1; SI K103N [7]: 230; EC50 [7]: 0.0584 ± 0.00714 µM; RF K103N [7]: 1.1; CC50 at 5 days [8]: 13.4 ± 5.94 µM |
| Cc1cc(-c2ccc(F)cc2)cc(C)c1Oc1nc(NC2CCN(Cc3ccc(S(N)(=O)=O)cc3)CC2)nc2ccsc12 [Compound 23, 4-((4-((4-((4′-Fluoro-3,5-dimethyl-[1,1′-biphenyl]-4-yl)oxy)thieno[3,2-d]pyrimidin-2-yl)amino)piperidin-1-yl)methyl)benzenesulfonamide] | 0.211 ± 0.015 | 547 | 0.0309 ± 0.00526 | 2.7 | 377 | 0.0448 ± 0.00526 | 4.0 | 0.0113 ± 0.00207 | 1492 | 363 | 0.0466 ± 0.0155 | 4.1 | 372 | 0.0454 ± 0.00526 | 4.0 | 43 | 0.388 ± 0.0762 | 34.3 | 3.28 ± 1.26 | 5 | SI Y188L [6]: 326; EC50 [6]: 0.0518 ± 0.00847 µM; RF Y188L [6]: 4.6; SI K103N [7]: 1441; EC50 [7]: 0.0117 ± 0.00103 µM; RF K103N [7]: 1.0; CC50 at 5 days [8]: 16.9 ± 4.77 µM |
| Cc1cc(-c2ccc(F)cc2)cc(C)c1Oc1nc(NC2CCN(Cc3ccc(C(N)=O)cc3)CC2)nc2ccsc12 [Compound 24, 4-((4-((4-((4′-Fluoro-3,5-dimethyl-[1,1′-biphenyl]-4-yl)oxy)thieno[3,2-d]pyrimidin-2-yl)amino)piperidin-1-yl)methyl)benzamide] | 0.171 ± 0.01 | 195 | 0.0348 ± 0.0106 | 2.7 | 189 | 0.0361 ± 0.00121 | 2.8 | 0.0128 ± 0.00273 | 532 | 120 | 0.0566 ± 0.0137 | 4.4 | 111 | 0.0611 ± 0.00935 | 4.8 | 12 | 0.575 ± 0.12 | 44.9 | ≥ 5.66 | <1 | SI Y188L [6]: 132; EC50 [6]: 0.0514 ± 0.0096 µM; RF Y188L [6]: 4.0; SI K103N [7]: 578; EC50 [7]: 0.0117 ± 0.00109 µM; RF K103N [7]: 0.9; CC50 at 5 days [8]: 6.8 ± 3.13 µM |
| Cc1cc(-c2ccc(C#N)cc2)cc(C)c1Oc1nc(NC2CCN(Cc3ccc(S(N)(=O)=O)cc3)CC2)nc2ccsc12 [Compound 25, 4-((4-((4-((4′-Cyano-3,5-dimethyl-[1,1′-biphenyl]-4-yl)oxy)thieno[3,2-d]pyrimidin-2-yl)amino)piperidin-1-yl)methyl)benzenesulfonamide] | 0.288 ± 0.026 | 120 | 0.0444 ± 0.00362 | 2.6 | 173 | 0.0308 ± 0.00011 | 1.8 | 0.017 ± 0.00578 | 312 | 89 | 0.0599 ± 0.0102 | 3.5 | 194 | 0.0274 ± 0.00441 | 1.6 | 51 | 0.103 ± 0.00339 | 6.1 | 5.56 ± 0.0423 | 1 | SI Y188L [6]: 99; EC50 [6]: 0.0536 ± 0.0035 µM; RF Y188L [6]: 3.2; SI K103N [7]: 403; EC50 [7]: 0.0132 ± 0.00033 µM; RF K103N [7]: 0.8; CC50 at 5 days [8]: 5.31 ± 2.56 µM |
| Cc1cc(-c2cccc(C#N)c2)cc(C)c1Oc1nc(NC2CCN(Cc3ccc(S(N)(=O)=O)cc3)CC2)nc2ccsc12 [Compound 27, 4-((4-((4-((3′-Cyano-3,5-dimethyl-[1,1′-biphenyl]-4-yl)oxy)thieno[3,2-d]pyrimidin-2-yl)amino)piperidin-1-yl)methyl)benzenesulfonamide] | 0.207 ± 0.006 | 402 | 0.0348 ± 0.00928 | 2.6 | 432 | 0.0324 ± 0.00407 | 2.4 | 0.0133 ± 0.0026 | 1054 | 285 | 0.0492 ± 0.00826 | 3.7 | 569 | 0.0246 ± 0.00497 | 1.9 | 40 | 0.347 ± 0.0759 | 26.1 | 4.92 ± 2.25 | 3 | SI Y188L [6]: 256; EC50 [6]: 0.0547 ± 0.00226 µM; RF Y188L [6]: 4.1; SI K103N [7]: 1639; EC50 [7]: 0.00856 ± 0.00169 µM; RF K103N [7]: 0.6; CC50 at 5 days [8]: 14 ± 8.28 µM |
